The text below walks through data of patent US8497245B2, “Trypsin-like serine protease inhibitors, their preparation and use as selective inhibitors of the clotting factors IIa and Xa” (The Medicines Company (Leipzig) GmbH, priority 2010, dated 2013).

One test deals with thrombin and FXa. As to conditions: literature value; cited from earlier work.
Test [1] concerns the target T1, Subcomponent "r" of Human Complement Component 1 (h C1r) (Homo sapiens, UniProt P00736).
T1 construct: purchased Calbiochem
T1 sequence (P00736 464-705 limits assumed): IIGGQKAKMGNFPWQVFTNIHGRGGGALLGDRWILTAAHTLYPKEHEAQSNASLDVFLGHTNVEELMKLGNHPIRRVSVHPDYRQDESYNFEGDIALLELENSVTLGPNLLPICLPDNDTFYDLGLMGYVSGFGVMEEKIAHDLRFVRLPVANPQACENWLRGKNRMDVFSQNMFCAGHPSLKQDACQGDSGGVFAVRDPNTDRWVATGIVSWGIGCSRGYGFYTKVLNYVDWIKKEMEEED
T1 sequence (P00736 18-463 partner limits assumed): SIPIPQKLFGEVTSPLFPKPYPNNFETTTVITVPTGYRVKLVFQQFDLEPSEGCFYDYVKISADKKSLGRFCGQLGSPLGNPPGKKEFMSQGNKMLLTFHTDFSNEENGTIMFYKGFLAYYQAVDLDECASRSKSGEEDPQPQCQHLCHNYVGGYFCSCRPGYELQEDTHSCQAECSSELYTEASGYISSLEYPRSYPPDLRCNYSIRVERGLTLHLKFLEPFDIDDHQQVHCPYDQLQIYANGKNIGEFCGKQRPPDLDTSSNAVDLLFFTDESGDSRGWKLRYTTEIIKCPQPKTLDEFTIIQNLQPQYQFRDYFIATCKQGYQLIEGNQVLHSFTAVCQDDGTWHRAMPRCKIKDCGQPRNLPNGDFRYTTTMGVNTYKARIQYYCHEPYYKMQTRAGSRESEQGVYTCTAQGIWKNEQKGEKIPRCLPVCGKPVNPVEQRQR
Nature of the test: Inhibition of human C1r (reference enzyme). The format is biochemical. The settings on record: S-2314 substrate; read-out: Ki h Clr. Put shortly: (§1)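 Abs 405 nm (p-NA release from chromogenic substrate) with purified enzyme; equilibrium rates fit to competitive-inhibition equation → Ki, nM; mean of ≥3 runs.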

Test [2] concerns the target T2, Human urokinase type plasminogen activator (h u-PA) (Homo sapiens, UniProt P00749).
T2 construct: purchased MEDAC GmbH Urokinase HS medac
As to the kind of experiment: Inhibition of human urokinase type plasminogen activator (reference enzyme). As to conditions: H-Glu-Gly-Arg-pNA substrate. The test is classed as biochemical. The essentials: as §1

Test [3] concerns the target T3, Human urinary kallikrein (h uKK) (Homo sapiens, UniProt P06870).
T3 construct: purchased Lee Biosolutions
As to the kind of experiment: Inhibition of human urinary kallikrein (reference enzyme). The format is biochemical. As to conditions: S-2266 substrate. The essentials:
as §1

The target of test [4] is T4, human factor IIa (human alpha-thrombin) (Homo sapiens, UniProt P00734).
T4 construct: human alpha-thrombin from Enzyme Research Laboratories; purchased Enzyme Research Laboratories
Nature of the test: Inhibition constants for human factor IIa, chromogenic substrate assay. The test is classed as biochemical. The settings on record: 25° C., Pefachrome tPA substrate, average of at least three determinations; read-out: Ki h FIIa. The essentials: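 Absorbance at 405 nm tracked p-nitroaniline liberated by each purified enzyme (human thrombin or human factor Xa) in pH 8.0 TBS containing 0.154 M NaCl and 2% ethanol. Equilibrium rates were fitted by competitive-inhibition kinetics to give Ki; values are means of ≥3 runs.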

For test [5], the target named is T5, Subcomponent "s" of Human Complement Component 1 (h C1s) (Homo sapiens, UniProt P09871).
T5 construct: purchased Calbiochem
T5 sequence (P09871 438-688 limits assumed): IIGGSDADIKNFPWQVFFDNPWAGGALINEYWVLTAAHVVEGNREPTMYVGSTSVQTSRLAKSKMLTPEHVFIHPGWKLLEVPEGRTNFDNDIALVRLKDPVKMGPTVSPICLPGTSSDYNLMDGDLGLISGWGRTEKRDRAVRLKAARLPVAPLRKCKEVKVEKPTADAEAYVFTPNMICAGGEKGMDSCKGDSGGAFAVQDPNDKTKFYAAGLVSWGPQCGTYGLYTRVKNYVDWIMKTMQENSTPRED
T5 sequence (P09871 16-437 partner limits assumed): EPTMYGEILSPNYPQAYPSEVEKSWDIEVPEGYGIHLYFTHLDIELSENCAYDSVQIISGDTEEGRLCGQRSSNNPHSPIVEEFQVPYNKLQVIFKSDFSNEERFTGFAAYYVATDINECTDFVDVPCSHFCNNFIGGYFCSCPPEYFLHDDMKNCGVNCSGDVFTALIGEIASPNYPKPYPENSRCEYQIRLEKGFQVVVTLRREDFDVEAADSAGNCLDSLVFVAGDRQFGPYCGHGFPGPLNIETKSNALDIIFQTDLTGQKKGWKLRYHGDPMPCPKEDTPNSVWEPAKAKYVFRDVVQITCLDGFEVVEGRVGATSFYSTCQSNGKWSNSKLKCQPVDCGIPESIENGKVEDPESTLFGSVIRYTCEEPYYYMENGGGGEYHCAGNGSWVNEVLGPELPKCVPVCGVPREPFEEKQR
Nature of the test: Inhibition of human C1s (reference enzyme). The test is classed as biochemical. As to conditions: S-2314 substrate; read-out: Ki h Cls. The essentials: as §1

The target in test [6] is T6, Human tissue-type plasminogen activator (h t-PA) (Homo sapiens, UniProt P00750).
T6 construct: purchased Boehringer Ingelheim Actilyse
Nature of the test: Inhibition of human tissue-type plasminogen activator (reference enzyme). The test is classed as biochemical. The protocol: The equilibrium rates were used to calculate the inhibitor/enzyme dissociation constant (Ki values) by parameter fitting in accordance with the rate equation for competitive inhibition using GraFit (version 4 from Erithacus).
Dissociation constants were calculated as described herein.

For test [7], the target named is T7, Human plasmin (h plasmin) (Homo sapiens, UniProt P00747).
T7 construct: purchased Calbiochem
As to the kind of experiment: Inhibition of human plasmin (reference enzyme). The test is classed as biochemical. The settings on record: Chromozym PL substrate. The essentials:
as §1

The target in test [8] is T8, Human plasma kallikrein (h PK) (Homo sapiens, UniProt P03952).
T8 construct: purchased Enzyme Research Laboratories
As to the kind of experiment: Inhibition of human plasma kallikrein (reference enzyme). The format is biochemical. The settings on record: S2302 substrate. The essentials: as §1

In another test the target is T9, human Factor Xa (Homo sapiens, UniProt P00742).
T9 construct: human Factor Xa from Enzyme Research Laboratories; purchased Enzyme Research Laboratories
As to the kind of experiment: Inhibition constants for human factor Xa, chromogenic substrate assay. As to conditions: 25° C., Pefachrome FXa substrate, average of at least three determinations; read-out: Ki h FXa. The format is biochemical. The essentials:
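Inhibitor/enzyme dissociation constants reflect competitive-model fits of equilibrium rates, averaged over at least three determinations. Rates were taken from the absorbance change at 405 nm as p-nitroaniline was cleaved from substrate by purified thrombin or factor Xa in 0.05 M Tris buffer, pH 8.0.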

Test [9] concerns the target T10, Human Activated Protein C (h aPC) (Homo sapiens, UniProt P04070).
T10 construct: purchased Enzyme Research Laboratories
Nature of the test: Inhibition of human activated protein C (reference enzyme). The test is classed as biochemical. As to conditions: Pefachrome PCa substrate. Put shortly: as §1

Where [10] appears, read: Pefachrome tPA substrate, read-out: Ki h t-PA.

In general, Ki refers to the dissociation constant of the complex between target and ligand, obtained from inhibition or displacement.

Counter-ions that a name gives are not always drawn. Like-named read-outs stand apart in the source and are kept apart here.

T9 sequence (P00742 235-488 limits assumed): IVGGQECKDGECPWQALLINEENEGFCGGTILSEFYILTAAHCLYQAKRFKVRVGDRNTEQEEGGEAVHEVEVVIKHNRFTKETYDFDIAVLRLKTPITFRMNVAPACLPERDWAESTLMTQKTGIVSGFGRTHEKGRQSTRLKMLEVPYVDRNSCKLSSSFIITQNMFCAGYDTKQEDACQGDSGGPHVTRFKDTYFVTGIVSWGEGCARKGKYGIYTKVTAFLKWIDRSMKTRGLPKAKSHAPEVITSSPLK
T9 sequence (P00742 41-179 partner limits assumed): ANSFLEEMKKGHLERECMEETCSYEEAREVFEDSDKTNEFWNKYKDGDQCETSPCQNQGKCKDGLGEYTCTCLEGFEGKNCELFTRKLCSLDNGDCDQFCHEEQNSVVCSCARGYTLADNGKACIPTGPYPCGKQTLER
T10 sequence (P04070 212-450 limits assumed): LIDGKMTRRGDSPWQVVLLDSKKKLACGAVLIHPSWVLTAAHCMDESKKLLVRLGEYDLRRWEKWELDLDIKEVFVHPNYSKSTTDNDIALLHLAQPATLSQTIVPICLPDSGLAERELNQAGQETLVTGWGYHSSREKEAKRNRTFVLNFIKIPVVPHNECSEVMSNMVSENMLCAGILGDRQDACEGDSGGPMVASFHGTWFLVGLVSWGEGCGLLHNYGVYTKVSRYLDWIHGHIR
T10 sequence (P04070 43-197 partner limits assumed): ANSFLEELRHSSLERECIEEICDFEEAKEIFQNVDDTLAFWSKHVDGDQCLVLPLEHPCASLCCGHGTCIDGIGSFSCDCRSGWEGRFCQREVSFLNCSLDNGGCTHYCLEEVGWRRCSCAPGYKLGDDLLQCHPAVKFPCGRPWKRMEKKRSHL
T7 sequence (P00747 581-810 limits assumed): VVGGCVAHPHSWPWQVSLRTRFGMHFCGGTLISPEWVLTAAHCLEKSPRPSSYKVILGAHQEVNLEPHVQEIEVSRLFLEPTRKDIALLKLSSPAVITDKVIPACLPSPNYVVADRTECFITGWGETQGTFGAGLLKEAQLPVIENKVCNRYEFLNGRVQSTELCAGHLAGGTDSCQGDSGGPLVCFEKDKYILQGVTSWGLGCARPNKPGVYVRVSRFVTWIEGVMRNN
T7 sequence (P00747 97-580 partner limits assumed): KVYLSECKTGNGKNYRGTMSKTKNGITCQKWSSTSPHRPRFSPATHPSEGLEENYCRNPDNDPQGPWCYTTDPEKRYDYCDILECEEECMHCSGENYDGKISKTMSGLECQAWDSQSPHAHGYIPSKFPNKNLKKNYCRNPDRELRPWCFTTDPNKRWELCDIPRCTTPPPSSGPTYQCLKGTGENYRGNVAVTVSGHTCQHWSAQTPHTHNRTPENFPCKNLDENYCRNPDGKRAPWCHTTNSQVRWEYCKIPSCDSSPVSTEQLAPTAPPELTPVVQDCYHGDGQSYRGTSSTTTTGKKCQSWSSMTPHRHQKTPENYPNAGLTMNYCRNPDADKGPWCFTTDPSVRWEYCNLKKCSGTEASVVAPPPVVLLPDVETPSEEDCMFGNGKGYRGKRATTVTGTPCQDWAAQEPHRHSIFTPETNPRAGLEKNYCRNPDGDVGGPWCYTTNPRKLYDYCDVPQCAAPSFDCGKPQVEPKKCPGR
T6 sequence (P00750 36-562): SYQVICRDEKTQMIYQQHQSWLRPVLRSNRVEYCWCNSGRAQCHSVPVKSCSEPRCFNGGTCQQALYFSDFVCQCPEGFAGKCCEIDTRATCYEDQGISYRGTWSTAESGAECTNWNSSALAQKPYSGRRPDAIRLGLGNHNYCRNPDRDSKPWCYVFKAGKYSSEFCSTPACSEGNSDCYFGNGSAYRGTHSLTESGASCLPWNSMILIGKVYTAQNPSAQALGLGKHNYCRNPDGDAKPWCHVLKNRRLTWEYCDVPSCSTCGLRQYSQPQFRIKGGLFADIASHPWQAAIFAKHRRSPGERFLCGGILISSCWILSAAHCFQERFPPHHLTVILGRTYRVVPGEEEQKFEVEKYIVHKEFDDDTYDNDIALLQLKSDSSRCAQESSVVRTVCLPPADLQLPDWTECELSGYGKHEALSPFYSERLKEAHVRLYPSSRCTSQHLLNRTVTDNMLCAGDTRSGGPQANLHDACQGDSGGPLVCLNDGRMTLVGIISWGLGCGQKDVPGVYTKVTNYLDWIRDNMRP
T8 sequence (P03952 391-638 limits assumed): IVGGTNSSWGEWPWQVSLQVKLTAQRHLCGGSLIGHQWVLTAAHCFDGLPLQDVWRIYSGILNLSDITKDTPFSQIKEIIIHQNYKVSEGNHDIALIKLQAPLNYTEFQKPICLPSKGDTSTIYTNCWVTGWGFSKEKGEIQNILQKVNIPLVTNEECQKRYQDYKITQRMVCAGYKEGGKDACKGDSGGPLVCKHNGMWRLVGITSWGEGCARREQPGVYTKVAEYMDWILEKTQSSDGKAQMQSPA
T8 sequence (P03952 20-390 partner limits assumed): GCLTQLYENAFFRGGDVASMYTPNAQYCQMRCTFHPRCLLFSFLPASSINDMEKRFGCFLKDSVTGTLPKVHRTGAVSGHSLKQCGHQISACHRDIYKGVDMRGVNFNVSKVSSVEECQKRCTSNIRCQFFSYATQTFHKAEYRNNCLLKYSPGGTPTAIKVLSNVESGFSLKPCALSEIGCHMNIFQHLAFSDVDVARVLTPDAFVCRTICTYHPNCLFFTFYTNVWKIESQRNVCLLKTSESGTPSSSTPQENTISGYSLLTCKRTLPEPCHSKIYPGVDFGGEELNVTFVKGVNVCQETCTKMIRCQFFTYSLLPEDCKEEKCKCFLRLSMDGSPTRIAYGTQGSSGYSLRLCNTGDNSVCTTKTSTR
T3 sequence (P06870 25-262): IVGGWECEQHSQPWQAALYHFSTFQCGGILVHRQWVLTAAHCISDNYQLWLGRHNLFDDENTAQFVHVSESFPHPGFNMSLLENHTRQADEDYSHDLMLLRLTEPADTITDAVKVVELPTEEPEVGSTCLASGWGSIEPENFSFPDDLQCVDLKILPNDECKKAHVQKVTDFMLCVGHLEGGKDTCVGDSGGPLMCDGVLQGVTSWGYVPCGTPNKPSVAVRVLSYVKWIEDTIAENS

Turning to `Cn1c(CNc2ccc(C(=N)N)cc2)nc2cc([C@@](C)(NCC(=O)O)C(=O)N3CCCC3)ccc21` [Tanogitran], in the test with thrombin and FXa, the FXa/thrombin ratio was 0.1.

With `Cc1cccc(S(=O)(=O)Nc2ccc(C)n(CC(=O)NCCON=C(N)N)c2=O)c1` [RWJ445167], in the test with thrombin and FXa, the FXa/thrombin ratio is listed as under 0.02.

Take `NCc1ccc(Cl)cc1CNC(=O)[C@@H]1CCN1C(=O)[C@@H](CC(=O)N1CCNCC1)NS(=O)(=O)Cc1ccccc1` [Compound 2.50, Bzls-D-Asp(piperazinyl)-L-Aze-Amb(2-AMe-5-Cl)×2 TFA]: the Ki is over 100 µM in test [1]; over 25 µM in test [2]; over 100 µM in test [3]; 0.014 µM in [4]; over 100 µM in test [5]; over 20 µM in test [6] (setting [10]). Further, the Ki in test [7] is over 15 µM; in [8] it was 3.34 µM; on human Factor Xa, 0.0052 µM; in test [9] it was over 100 µM.

`CN(C(=O)C[C@@H](NS(=O)(=O)Cc1ccccc1)C(=O)N1CCC[C@H]1C(=O)NCc1cc(Cl)ccc1CN)C1CCNCC1` [Compound 2.3]: the inhibitory constant (Ki) in [1] was over 100 µM; in [2], over 100 µM; in [3] it was over 50 µM; in [4] it was 0.003 µM; in test [5] it was over 20 µM; in test [6] it was over 50 µM. Also, the Ki is over 100 µM in [7], 5.31 µM in test [8], 0.023 µM at human Factor Xa and over 10 µM in test [9].

`O=C(NCc1cc(Cl)ccc1-n1cnnn1)[C@@H]1CCCN1C(=O)[C@@H](CCC(=O)N1CCOCC1)NS(=O)(=O)Cc1ccccc1` [Compound 2.20]: the Ki in test [1] was over 30 µM; in [2], over 100 µM; in test [3], over 50 µM; in test [4], 0.0031 µM; in [5], over 75 µM; in test [6] (setting [10]) it was over 15 µM. Moreover, the Ki in test [7] is 7.27 µM; in [8], 0.74 µM; on human Factor Xa, 0.0038 µM; in test [9], over 30 µM.

For the compound `NCc1ccc(Cl)cc1CNC(=O)[C@@H]1CCN1C(=O)[C@@H](CCC(=O)N1CCOCC1)NS(=O)(=O)Cc1ccccc1` [Compound 2.43], the Ki is over 30 µM in [1]; over 20 µM in test [2]; over 10 µM in [3]; 0.0097 µM in [4]; over 80 µM in [5]; over 80 µM in test [6] (setting [10]). Besides, the Ki in test [7] was over 40 µM; in [8], 5.81 µM; at human Factor Xa, 0.0017 µM; in [9], over 100 µM.

Turning to `NCc1ccc(Cl)cc1CNC(=O)[C@@H]1CCCCN1C(=O)[C@@H](CC(=O)N1CCOCC1)NS(=O)(=O)Cc1ccccc1` [Compound 2.14], the Ki in [1] was over 50 µM; in test [2], over 50 µM; in test [3], over 20 µM; in test [4], 0.0003 µM; in test [5] it was over 50 µM; in [6] (setting [10]) it was over 50 µM. Also, the Ki was over 50 µM in test [7], 4.53 µM in test [8], 0.0083 µM at human Factor Xa and over 20 µM in [9].
